The values below come from patent publication US7205394B2, “Clathrate of azithromycin hydrate with 1,2-propyleneglycol, method for the manufacture thereof and pharmaceutical composition comprising same” (Hanmi Pharm. Co., Ltd., priority 2001, dated 2007).

The conditions of data set [1]: prior art forms, background section, cited from earlier work.
Data set [2] can be described thus: Hygroscopic properties: exposure to relative humidity, water content by Karl Fischer method. In kind it is physicochemical. The note with it: for Found-Calculated (Difference, %) / Range of Difference (%) / Water content, relative humidity 25% / Water content, relative humidity 50% / Water content, relative humidity 75% / Water content, relative humidity 100%: 7 days; for Found-Calculated (Difference, %) / Range of Difference (%): relative humidity 25-100%; for Found-Calculated (Difference, %) (number in parenthesis) / Range of Difference (%) (number in parenthesis): after 3 days at the corresponding relative humidity; for Water content at onset: before exposure, 7-day series; for Water content at onset / Water content, relative humidity 25% / Water content, relative humidity 50% / Water content, relative humidity 75% / Water content, relative humidity 100%: Karl Fischer; for Water content at onset (number in parenthesis): parenthesis = 3-day series; for Water content, relative humidity 50% (number in parenthesis) / Water content, relative humidity 75% (number in parenthesis) / Water content, relative humidity 100% (number in parenthesis) / Water content, relative humidity 25% (33%) (number in parenthesis): after 3 days; for Water content, relative humidity 25% (33%) (number in parenthesis): relative humidity (33%); for Calculated water content (%): theoretical, for (1) based on m = 1.5 and n = 0.30 in formula (I). On the procedure:
Also, the hygroscopic properties of each of the compound obtained in Example 1 (1), azithromycin dihydrate (2), monohydrate (3), and anhydride (4) were determined by exposing each sample to a relative humidity of each 25%, 50%, […] thereof by the Karl Fischer method.

For data set [3], the system named is rat. The note with it: oral administration in rat; cited from earlier work.

Each structure is given as a SMILES string. Where two headings read alike, the source gives them in different places.

On to `CC[C@H]1OC(=O)[C@H](C)[C@@H](O[C@H]2C[C@@](C)(OC)[C@@H](O)[C@H](C)O2)[C@H](C)[C@@H](O[C@@H]2O[C@H](C)C[C@H](N(C)C)[C@H]2O)[C@](C)(O)C[C@@H](C)CN(C)[C@H](C)[C@@H](O)[C@]1(C)O` [(2), azithromycin dihydrate], for which the “Hygroscopic property (in words)” value in data set [1] (dihydrate) is “less hydroscopic than the monohydrate”. Besides, in data set [2] (dihydrate), the “Found-Calculated (Difference, %)” value is reported as −0.4~+1.51%; the “Range of Difference (%)” value was found to be 1.91%; the “Found-Calculated (Difference, %) (number in parenthesis)” value is listed as “(−2.1~+0.6) %”; the “Range of Difference (%) (number in parenthesis)” value was found to be 2.7%. In data set [2] (dihydrate), the “Water content at onset” value was 4.58%; the “Water content at onset (number in parenthesis)” value was determined as 4.1%; the “Water content, relative humidity 25%” value is listed as 4.20%; the “Water content, relative humidity 50%” value is given as 4.25%. Moreover, in data set [2] (dihydrate), the “Water content, relative humidity 50% (number in parenthesis)” value was 4.6%; the “Water content, relative humidity 75%” value is recorded as 5.10%; the “Water content, relative humidity 75% (number in parenthesis)” value is 4.6%; the “Water content, relative humidity 100%” value was determined as 6.11%. For the same compound, in data set [2] (dihydrate), the “Water content, relative humidity 100% (number in parenthesis)” value is recorded as 5.2%; the “Water content, relative humidity 25% (33%) (number in parenthesis)” value was 2.5%; the “Calculated water content (%)” value is reported as 4.60%.
On to `CC[C@H]1OC(=O)[C@H](C)[C@@H](O[C@H]2C[C@@](C)(OC)[C@@H](O)[C@H](C)O2)[C@H](C)[C@@H](O[C@@H]2O[C@H](C)C[C@H](N(C)C)[C@H]2O)[C@](C)(O)C[C@@H](C)CN(C)[C@H](C)[C@@H](O)[C@]1(C)O` [(3), azithromycin monohydrate], for which, in data set [2] (monohydrate), the “Found-Calculated (Difference, %)” value was “+1~+3.94%”; the “Range of Difference (%)” value is 3.94%; the “Found-Calculated (Difference, %) (number in parenthesis)” value is “(−0.05~+4.84) %”; the “Range of Difference (%) (number in parenthesis)” value is given as 4.9%. In data set [2] (monohydrate), the “Water content at onset” value is on record as 2.30%; the “Water content at onset (number in parenthesis)” value is given as 3.2%; the “Water content, relative humidity 25%” value was determined as 3.35%; the “Water content, relative humidity 50%” value came out at 5.13%. Also, in data set [2] (monohydrate), the “Water content, relative humidity 50% (number in parenthesis)” value is reported as 5.6%; the “Water content, relative humidity 75%” value was 5.41%; the “Water content, relative humidity 75% (number in parenthesis)” value is reported as 6.6%; the “Water content, relative humidity 100%” value was 6.29%. Further, in data set [2] (monohydrate), the “Water content, relative humidity 100% (number in parenthesis)” value came out at 7.2%; the “Water content, relative humidity 25% (33%) (number in parenthesis)” value stood at 2.3%; the “Calculated water content (%)” value was 2.35%.
Consider `CC[C@H]1OC(=O)[C@H](C)[C@@H](O[C@H]2C[C@@](C)(OC)[C@@H](O)[C@H](C)O2)[C@H](C)[C@@H](O[C@@H]2O[C@H](C)C[C@H](N(C)C)[C@H]2O)C(C)(O)C[C@H](C)CN(C)[C@H](C)[C@@H](O)[C@]1(C)O` (some centres unmarked) [(4), 9-deoxo-9a-aza-9a-methyl-9a-homoerythromycin A], for which the “Hygroscopic property (in words)” value in data set [1] was “highly hygroscopic”. In addition, in data set [2], the “Found-Calculated (Difference, %)” value is listed as “+1.11~+7.00%”; the “Range of Difference (%)” value was 7.00%; the “Water content at onset” value was 0.22%; the “Water content, relative humidity 25%” value is recorded as 1.11%. In addition, in data set [2], the “Water content, relative humidity 50%” value is reported as 2.85%; the “Water content, relative humidity 75%” value came out at 4.33%; the “Water content, relative humidity 100%” value is 7.00%; the “Calculated water content (%)” value is 0.00%.
Consider `CC(O)CO` (centres unmarked) [1,2-propyleneglycol], for which the LD50 in data set [3] was 25 mL/kg.
